Assay results reported in the supplement of paper PMC5662764.
± gives the standard deviation of the averaged measurements.

What was measured:
Experiment in all cases: normalised growth rate inhibition (GR value) relative to DMSO control (GR (1 = untreated growth, 0 = cytostasis, <0 = cytotoxic)); higher = less growth inhibition
Conditions in all cases: 72 h
BT20 = test system: BT20
Experimental: (§1)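 Breast cancer cell lines (BT-20, Hs 578T, MCF 10A, MCF7, MDA-MB-231, SK-BR-3) were plated in 384-well plates and treated 24 h later with drugs at six concentrations (0.04-10 µM). Viable cells were counted by Hoechst/dead-cell-stain imaging at 0 and 72 h. Counts were normalised to DMSO controls on the same plate to give the relative cell count and the growth-rate inhibition (GR) value; technical plate triplicates were averaged for each biological replicate.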

HS578T = test system: HS578T
Experimental: as §1

MCF10A = test system: MCF10A
Experimental: as §1

MCF7 = test system: MCF7
Experimental: as §1

MDAMB231 = test system: MDAMB231
Experimental: as §1

SKBR3 = test system: SKBR3
Experimental: as §1

Compound | normalised growth rate inhibition (BT20; 0.04 µM) | normalised growth rate inhibition (BT20; 0.12 µM) | normalised growth rate inhibition (BT20; 0.37 µM) | normalised growth rate inhibition (BT20; 1.11 µM) | normalised growth rate inhibition (BT20; 3.33 µM) | normalised growth rate inhibition (BT20; 10 µM) | normalised growth rate inhibition (HS578T; 0.04 µM) | normalised growth rate inhibition (HS578T; 0.12 µM) | normalised growth rate inhibition (HS578T; 0.37 µM) | normalised growth rate inhibition (HS578T; 1.11 µM) | normalised growth rate inhibition (HS578T; 3.33 µM) | normalised growth rate inhibition (HS578T; 10 µM) | normalised growth rate inhibition (MCF10A; 0.04 µM) | normalised growth rate inhibition (MCF10A; 0.12 µM) | normalised growth rate inhibition (MCF10A; 0.37 µM) | normalised growth rate inhibition (MCF10A; 1.11 µM) | normalised growth rate inhibition (MCF10A; 3.33 µM) | normalised growth rate inhibition (MCF10A; 10 µM) | normalised growth rate inhibition (MCF7; 0.04 µM) | normalised growth rate inhibition (MCF7; 0.12 µM) | normalised growth rate inhibition (MCF7; 0.37 µM) | normalised growth rate inhibition (MCF7; 1.11 µM) | normalised growth rate inhibition (MCF7; 3.33 µM) | normalised growth rate inhibition (MCF7; 10 µM) | normalised growth rate inhibition (MDAMB231; 0.04 µM) | normalised growth rate inhibition (MDAMB231; 0.12 µM) | normalised growth rate inhibition (MDAMB231; 0.37 µM) | normalised growth rate inhibition (MDAMB231; 1.11 µM) | normalised growth rate inhibition (MDAMB231; 3.33 µM) | normalised growth rate inhibition (MDAMB231; 10 µM) | normalised growth rate inhibition (SKBR3; 0.04 µM) | normalised growth rate inhibition (SKBR3; 0.12 µM) | normalised growth rate inhibition (SKBR3; 0.37 µM) | normalised growth rate inhibition (SKBR3; 1.11 µM) | normalised growth rate inhibition (SKBR3; 3.33 µM) | normalised growth rate inhibition (SKBR3; 10 µM)
CCCS(=O)(=O)Nc1ccc(F)c(C(=O)c2c[nH]c3ncc(-c4ccc(Cl)cc4)cc23)c1F [vemurafenib] | 0.971 ± 0.051 | 0.968 ± 0.052 | 0.964 ± 0.035 | 0.949 ± 0.057 | 0.87 ± 0.031 | 0.582 ± 0.032 | 1.04 ± 0.014 | 1.03 ± 0.011 | 1.03 ± 0.038 | 1.01 ± 0.051 | 0.89 ± 0.075 | 0.548 ± 0.033 | 0.9898 ± 0.0042 | 0.9881 ± 0.0069 | 0.9871 ± 0.0051 | 0.955 ± 0.045 | 0.798 ± 0.14 | 0.462 ± 0.096 | 0.978 ± 0.017 | 1.02 ± 0.024 | 1.03 ± 0.015 | 1.01 ± 0.046 | 0.998 ± 0.022 | 0.858 ± 0.086 | 0.975 ± 0.042 | 0.965 ± 0.03 | 0.964 ± 0.025 | 0.897 ± 0.061 | 0.827 ± 0.064 | 0.422 ± 0.042 | 1.05 ± 0.069 | 1.03 ± 0.044 | 1.03 ± 0.04 | 1.01 ± 0.042 | 0.951 ± 0.046 | 0.805 ± 0.032
N#CC(c1ccnc(NCCc2cccnc2)n1)c1nc2ccccc2s1 (configuration not stated) | 0.879 ± 0.031 | 0.922 ± 0.034 | 0.999 ± 0.044 | 1.03 ± 0.05 | 1.05 ± 0.035 | 1 ± 0.11 | 0.988 ± 0.016 | 1.01 ± 0.022 | 1.023 ± 0.0087 | 1.025 ± 0.0078 | 1.03 ± 0.023 | 0.932 ± 0.06 | 0.993 ± 0.015 | 0.986 ± 0.011 | 0.982 ± 0.011 | 0.987 ± 0.012 | 0.987 ± 0.016 | 0.707 ± 0.14 | 0.812 ± 0.044 | 0.877 ± 0.091 | 0.923 ± 0.12 | 0.883 ± 0.076 | 0.945 ± 0.085 | 0.659 ± 0.071 | 0.906 ± 0.026 | 0.905 ± 0.023 | 0.92 ± 0.023 | 0.94 ± 0.066 | 0.95 ± 0.096 | 0.726 ± 0.076 | 0.669 ± 0.056 | 0.809 ± 0.11 | 0.876 ± 0.081 | 0.84 ± 0.098 | 0.749 ± 0.13 | 0.383 ± 0.056
N#CCNC(=O)c1ccc(-c2ccnc(Nc3ccc(N4CCOCC4)cc3)n2)cc1 [CYT387] | 0.926 ± 0.072 | 0.871 ± 0.038 | 0.837 ± 0.083 | 0.748 ± 0.046 | 0.576 ± 0.073 | 0.0633 ± 0.1 | 0.931 ± 0.031 | 0.851 ± 0.022 | 0.762 ± 0.024 | 0.638 ± 0.043 | 0.447 ± 0.12 | 0.046 ± 0.14 | 0.959 ± 0.023 | 0.924 ± 0.032 | 0.868 ± 0.038 | 0.799 ± 0.047 | 0.649 ± 0.1 | 0.185 ± 0.11 | 0.912 ± 0.024 | 0.896 ± 0.098 | 0.83 ± 0.092 | 0.628 ± 0.083 | 0.332 ± 0.2 | 0.0654 ± 0.039 | 0.859 ± 0.059 | 0.777 ± 0.053 | 0.678 ± 0.087 | 0.527 ± 0.18 | 0.36 ± 0.28 | -0.112 ± 0.2 | 0.841 ± 0.15 | 0.8 ± 0.16 | 0.789 ± 0.12 | 0.687 ± 0.12 | 0.509 ± 0.11 | 0.0674 ± 0.037
Cc1ncc(-c2ccnc(Nc3ccc(S(C)(=O)=O)cc3)n2)n1C(C)C [AZD-5438] | 0.884 ± 0.086 | 0.655 ± 0.14 | 0.354 ± 0.2 | 0.0675 ± 0.11 | -0.117 ± 0.1 | -0.372 ± 0.15 | 0.908 ± 0.037 | 0.679 ± 0.063 | 0.274 ± 0.069 | -0.0129 ± 0.054 | -0.104 ± 0.095 | -0.186 ± 0.093 | 0.958 ± 0.02 | 0.797 ± 0.087 | 0.42 ± 0.18 | -0.0201 ± 0.058 | -0.199 ± 0.24 | -0.188 ± 0.19 | 0.798 ± 0.13 | 0.373 ± 0.11 | 0.0311 ± 0.046 | -0.106 ± 0.11 | -0.277 ± 0.036 | -0.438 ± 0.14 | 0.849 ± 0.1 | 0.633 ± 0.069 | 0.31 ± 0.071 | -0.0453 ± 0.074 | -0.205 ± 0.15 | -0.308 ± 0.18 | 0.891 ± 0.036 | 0.628 ± 0.013 | 0.292 ± 0.086 | -0.137 ± 0.12 | -0.28 ± 0.15 | -0.453 ± 0.2
C=CC(=O)Nc1cc2c(Nc3ccc(F)c(Cl)c3)ncnc2cc1OCCCN1CCOCC1 [canertinib] | 0.896 ± 0.044 | 0.8804 ± 0.0073 | 0.831 ± 0.027 | 0.814 ± 0.045 | 0.71 ± 0.061 | -0.13 ± 0.097 | 1 ± 0.028 | 0.996 ± 0.028 | 0.969 ± 0.019 | 0.944 ± 0.011 | 0.851 ± 0.034 | -0.289 ± 0.13 | 0.702 ± 0.24 | 0.498 ± 0.26 | 0.313 ± 0.2 | 0.173 ± 0.1 | 0.105 ± 0.033 | -0.39 ± 0.22 | 0.9894 ± 0.0058 | 0.884 ± 0.035 | 0.801 ± 0.053 | 0.67 ± 0.062 | 0.505 ± 0.13 | -0.367 ± 0.092 | 1.04 ± 0.029 | 0.965 ± 0.015 | 0.909 ± 0.026 | 0.782 ± 0.034 | 0.572 ± 0.099 | -0.249 ± 0.077 | 0.148 ± 0.089 | 0.023 ± 0.12 | -0.0304 ± 0.15 | -0.0844 ± 0.15 | -0.124 ± 0.14 | -0.261 ± 0.12
Cc1[nH]c(/C=C2\C(=O)Nc3ccc(S(=O)(=O)Cc4c(Cl)cccc4Cl)cc32)c(C)c1C(=O)N1CCC[C@@H]1CN1CCCC1 | 1.017 ± 0.0089 | 1.01 ± 0.052 | 1.003 ± 0.0079 | 0.976 ± 0.042 | 0.973 ± 0.035 | 0.22 ± 0.42 | 1 ± 0.028 | 1.002 ± 0.003 | 1 ± 0.011 | 0.96 ± 0.032 | 0.954 ± 0.018 | -0.131 ± 0.58 | 0.991 ± 0.01 | 0.9827 ± 0.0045 | 0.9763 ± 0.0045 | 0.967 ± 0.012 | 0.9647 ± 0.0068 | 0.544 ± 0.43 | 1.06 ± 0.012 | 1.06 ± 0.073 | 1.05 ± 0.051 | 1.01 ± 0.059 | 0.923 ± 0.052 | 0.665 ± 0.17 | 1.03 ± 0.045 | 1.02 ± 0.069 | 1.02 ± 0.043 | 0.997 ± 0.053 | 0.94 ± 0.023 | -0.343 ± 0.3 | 1.04 ± 0.071 | 1.06 ± 0.052 | 1.07 ± 0.087 | 1.06 ± 0.098 | 0.956 ± 0.047 | 0.012 ± 0.5
C[C@@H]1C[C@H]2O[C@@H]2/C=C\C=C\C(=O)Cc2c(Cl)c(O)cc(O)c2C(=O)O1 [radicicol] | 0.839 ± 0.08 | 0.395 ± 0.11 | 0.115 ± 0.088 | -0.0176 ± 0.13 | -0.0598 ± 0.11 | -0.163 ± 0.097 | 1.029 ± 0.01 | 0.95 ± 0.091 | 0.704 ± 0.27 | 0.321 ± 0.19 | 0.0951 ± 0.08 | 0.049 ± 0.12 | 0.886 ± 0.075 | 0.598 ± 0.21 | 0.299 ± 0.15 | 0.104 ± 0.021 | -0.0227 ± 0.054 | -0.182 ± 0.1 | 0.574 ± 0.059 | 0.262 ± 0.033 | 0.124 ± 0.04 | 0.123 ± 0.036 | 0.115 ± 0.035 | -0.0962 ± 0.041 | 1.06 ± 0.035 | 0.744 ± 0.084 | 0.298 ± 0.12 | 0.0741 ± 0.12 | 0.0054 ± 0.14 | -0.0299 ± 0.12 | 0.329 ± 0.053 | 0.0873 ± 0.083 | 0.0279 ± 0.1 | -0.0112 ± 0.14 | -0.0134 ± 0.1 | -0.166 ± 0.053
